Source: patent publication US20250034170A1, “SMALL MOLECULE MODULATORS OF GLUCOCEREBROSIDASE ACTIVITY AND USES THEREOF” (Vanqua Bio, Inc., priority 2021, published 2025)
pEC50: −log10 of the molar value.

Molecular target: T1, GCase (Homo sapiens, UniProt P04062)
T1 construct: endogenous in cells; host or cells: HeLa cells
T1 sequence (P04062 40-536): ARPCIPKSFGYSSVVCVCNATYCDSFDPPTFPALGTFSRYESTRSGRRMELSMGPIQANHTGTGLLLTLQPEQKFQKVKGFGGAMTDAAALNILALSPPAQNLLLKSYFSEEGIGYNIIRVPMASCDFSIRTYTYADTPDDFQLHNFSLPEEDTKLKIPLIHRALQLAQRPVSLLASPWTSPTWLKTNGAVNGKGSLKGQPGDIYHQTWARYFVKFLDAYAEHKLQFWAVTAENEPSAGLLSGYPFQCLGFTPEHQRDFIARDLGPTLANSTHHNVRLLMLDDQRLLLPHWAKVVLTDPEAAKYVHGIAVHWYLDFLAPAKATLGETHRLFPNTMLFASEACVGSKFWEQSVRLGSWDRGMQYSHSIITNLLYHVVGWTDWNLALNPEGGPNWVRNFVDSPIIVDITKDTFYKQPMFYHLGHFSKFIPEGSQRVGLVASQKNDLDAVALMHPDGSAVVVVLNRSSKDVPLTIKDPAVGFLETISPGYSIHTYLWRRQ
Assay: activation of GCase in a live cell PFB assay in HELA cells
Type: cell-based
Protocol: Exemplary compounds were evaluated for activation of GCase in a live cell PFB assay in HELA cells (essentially as described in Ysselstein et al., “LRRK2 kinase activity regulates lysosomal glucocerebrosidase in neurons derived from Parkinson's disease patients” Nature Communications (2019) 10:5570). […] EC50 ranges: A: <10 μM; B: >10-50 μM; C: >50-100 μM; D: >100 μM.

[1] = activation of GCase, EC50 ranges

With `Cc1cn2nc(N3CCC4(CN(c5cc(C(F)(F)F)nc(C)n5)C4)C3)ccc2n1` [Cmpd 638] the pEC50 [1] was 4.30 to 5.00.
With `Cc1cccc(S(=O)(=O)N2CC3(CCN(c4cnc5cnn(CC(F)F)c5n4)C3)C2)c1` [Cmpd 417] the pEC50 (EC50 given as range classes) was greater than 5.00.
`Cc1nn(CC(F)F)c2nc(N3CCC4(CC3)CC(=O)N(c3ccnc(C(F)(F)F)n3)C4)ncc12` [Cmpd 903] showed a pEC50 [1] greater than 5.00.
With `O=C1CC2(CCN(c3cnc4cnn(CC(F)F)c4n3)CC2)CN1Cc1ccc(Cl)cn1` [Cmpd 400] the pEC50 (EC50 given as range classes) was 4.30 to 5.00.
`FC(F)Cn1ncc2ncc(N3CCC4(CCC(Oc5cnccc5C(F)(F)F)C4)CC3)nc21` (centres unmarked) [Cmpd 688] gave a pEC50 [1] greater than 5.00.
Molecule `Cc1nc(N2CC3(CCN(c4nc5c(cnn5CC(F)F)c(=O)n4C)C3)C2)cc(C(F)(F)F)n1` [Cmpd 1084] has a pEC50 [1] greater than 5.00.
`COc1nn(CC(F)F)c2nc(N3CCC4(CCN(c5ccc(C(F)(F)F)nc5)C4)CC3)cnc12` [Cmpd 833] was tested, and the pEC50 (EC50 given as range classes) was greater than 5.00.
Work on `Cc1cc(N2CC3(CCN(c4cnc5cnn(C6COC6)c5n4)C3)C2)nc(C)n1` [Cmpd 646] yielded a pEC50 [1] of 4.30 to 5.00.
`Cc1cc(C(F)(F)F)ncc1N1CCC2(CCN(c3cnc4cnn(CC(F)F)c4n3)CC2)C1` [Cmpd 753] showed a pEC50 [1] greater than 5.00.
With `FC(F)(F)c1cc(N2CC3(CCN(c4cncc(-c5nnc(C(F)(F)F)s5)n4)C3)C2)ccn1` [Cmpd 1023] the pEC50 (EC50 given as range classes) was greater than 5.00.
`CC1(C)N(c2ccc(C(F)(F)F)nc2)C(=O)CC12CCN(c1cnc3cnn(CC(F)F)c3n1)CC2` [Cmpd 816] showed a pEC50 (EC50 given as range classes) of 4.30 to 5.00.
In the case of `Cc1cc(N2CC3(CCN(c4cnc5cnn([C@@H]6CCOC6)c5n4)C3)C2)nc(C(F)(F)F)n1` [Cmpd 1147], the pEC50 [1] was greater than 5.00.
With `FC(F)Cn1ncc2ncc(N3CC4(CCCN(c5ccnc(C(F)(F)F)c5)C4)C3)nc21` [Compound 8, 2-[1-(2,2-difluoroethyl)-1H-pyrazolo[3,4-b]pyrazin-6-yl]-6-[2-(trifluoromethyl)pyridin-4-yl]-2,6-diazaspiro[3.5]nonane] the pEC50 [1] was greater than 5.00.
Molecule `O=C1CC2(CCN(c3cnc4cnn(CC(F)F)c4n3)CC2)CN1c1ccc(Cl)nc1` [Cmpd 891] has a pEC50 [1] of 4.30 to 5.00.
For `O=C1CC2(CCN(c3cnc4cnn(CC(F)F)c4n3)CC2)CN1c1ccncc1C(F)(F)F` [Cmpd 684], the pEC50 [1] was greater than 5.00.
Molecule `Cc1nc(N2CC3(CCN(c4ncc5cnn(C(C)(C)C)c5n4)C3)C2)cc(C(F)(F)F)n1` [Cmpd 629] has a pEC50 (EC50 given as range classes) of 4.30 to 5.00.
Work on `O=C1CC2(CCN(c3cnc4cnn(CC(F)F)c4n3)CC2)CN1Cc1nc(C(F)(F)F)cs1` [Cmpd 368] yielded a pEC50 [1] greater than 5.00.
Work on `FC(F)Cn1ncc2ncc(N3CCCC4(CC(Oc5ccnc(C(F)(F)F)c5)C4)C3)nc21` (centres unmarked) [Compound 13, 6-[1-(2,2-difluoroethyl)-1H-pyrazolo[3,4-b]pyrazin-6-yl]-2-{[2-(trifluoromethyl)pyridin-4-yl]oxy}-6-azaspiro[3.5]nonane] yielded a pEC50 [1] of 4.30 to 5.00.
For `O=C1CC2(CN(c3ccnc(C(F)(F)F)c3)C2)CN1c1ncc2cnn(CC(F)F)c2n1` [Cmpd 1005], the pEC50 (EC50 given as range classes) was 4.30 to 5.00.
For `O=C1CC2(CCN(c3cnc4cnn(CC(F)F)c4n3)CC2)CN1c1cnc(C(F)(F)F)nc1` [Cmpd 305], the pEC50 [1] was 4.30 to 5.00.
`Cc1nn(C2COC2)c2nc(N3CCC4(CN(c5ccnc(C(F)(F)F)c5)C4)C3)n(C)c(=O)c12` [Cmpd 995] was tested, and the pEC50 (EC50 given as range classes) was greater than 5.00.
`FC(F)Cn1ncc2ncc(N3CCC4(CN(c5cccc(OC(F)F)n5)C4)C3)nc21` [Cmpd 406] gave a pEC50 (EC50 given as range classes) of 4.30 to 5.00.
Work on `COc1nc(N2CCC3(CN(c4ccnc(C(F)(F)F)c4)C3)C2)nc2c1cnn2CC(F)F` [Cmpd 297] yielded a pEC50 [1] of 4.30 to 5.00.
In the case of `FC(F)Cn1ncc2ncc(N3CCC4(CC3)CC(Nc3cc(C(F)(F)F)ccn3)C4)nc21` [Cmpd 231], the pEC50 (EC50 given as range classes) was 4.30 to 5.00.
`Cn1c(N2CCC3(CCN(c4nccc(C(F)(F)F)n4)C3)CC2)nc2c(cnn2C2COC2)c1=O` [Cmpd 1057] was tested, and the pEC50 [1] was 4.30 to 5.00.
`O=C1CC2(CCN(c3cnc4cnn(CC(F)F)c4n3)C2)CN1c1ccnc(C(F)(F)F)c1` (centres unmarked) [Cmpd 494] gave a pEC50 [1] greater than 5.00.
`FC(F)Cn1ncc2ncc(N3CCC4(CCC(Oc5ncccc5C(F)(F)F)C4)CC3)nc21` (centres unmarked) [Cmpd 689] gave a pEC50 [1] of 4.30 to 5.00.
`Cc1nc(N2CC3(CCN(c4cnc5cnn(C6COC6)c5n4)CC3)CC2=O)cc(C(F)(F)F)n1` [Cmpd 457] gave a pEC50 [1] of 4.30 to 5.00.
With `Cc1cc(N2CC3(CCN(c4ncc5c(C)nn(CC(C)(F)F)c5n4)C3)C2)nc(C(F)(F)F)n1` [Cmpd 1130] the pEC50 [1] was greater than 5.00.
`O=C1CC2(CN1c1ccc(C(F)(F)F)nc1)C1CC2CN(c2cnc3cnn(CC(F)F)c3n2)C1` (centres unmarked) [Cmpd 801] showed a pEC50 (EC50 given as range classes) of 4.00 to 4.30.
Molecule `O=C(c1cnc(C(F)(F)F)nc1)N1CCC2(CC1)CN(c1cnc3cnn(CC(F)F)c3n1)C2` [Cmpd 329] has a pEC50 [1] of 4.30 to 5.00.
Work on `Cc1nc(N2CC3(CCN(c4cc5c(cn4)c(C)nn5CC(F)F)CC3)CC2=O)cc(C(F)(F)F)n1` [Cmpd 614] yielded a pEC50 (EC50 given as range classes) of 4.30 to 5.00.
For `O=C1CC2(CCN(c3cncc(C(F)(F)F)c3)CC2)CN1c1cnc2cnn(CC(F)F)c2n1` [Compound 111, 2-[1-(2,2-difluoroethyl)-1H-pyrazolo[3,4-b]pyrazin-6-yl]-8-[5-(trifluoromethyl)pyridin-3-yl]-2,8-diazaspiro[4.5]decan-3-one], the pEC50 [1] was 4.30 to 5.00.
`FC(F)Cn1ncc2ncc(N3CCC4(CN(c5ccc(OCC(F)(F)F)nc5)C4)C3)nc21` [Cmpd 436] gave a pEC50 [1] of 4.30 to 5.00.
`Cc1nn(C2COC2)c2nc(N3CC4(CC3=O)CN(c3ccnc(C(F)(F)F)c3)C4)ncc12` [Cmpd 1009] was tested, and the pEC50 (EC50 given as range classes) was 4.30 to 5.00.
Molecule `FC(F)(F)Cn1ncc2ncc(N3CCCC4(CC(Oc5cnccc5C(F)(F)F)C4)C3)nc21` (centres unmarked) [Compound 11, 6-[1-(2,2,2-trifluoroethyl)-1H-pyrazolo[3,4-b]pyrazin-6-yl]-2-{[4-(trifluoromethyl)pyridin-3-yl]oxy}-6-azaspiro[3.5]nonane] has a pEC50 [1] greater than 5.00.
For `O=C1CCC2(CN(c3cnc4cnn(CC(F)F)c4n3)C2)CN1c1ccc(C(F)(F)F)cn1` [Cmpd 315], the pEC50 [1] was 4.30 to 5.00.
`Fc1ncc(C(F)(F)F)nc1N1CCC2(CCN(c3cnc4cnn(CC(F)F)c4n3)CC2)C1` [Cmpd 766] gave a pEC50 [1] greater than 5.00.
Molecule `CC(c1cnc(C(F)(F)F)nc1)N1CC2(CCN(c3cnc4cnn(CC(F)F)c4n3)CC2)CC1=O` (centres unmarked) [Cmpd 914] has a pEC50 [1] of 4.30 to 5.00.
`O=C1N(c2cc(C(F)(F)F)ccn2)CCC12CCN(c1cncc(N3CCOCC3)n1)CC2` [Cmpd 246] gave a pEC50 [1] of 4.30 to 5.00.
In the case of `O=C1CC2(CCN(c3cnc4cnn(CC(F)F)c4n3)CC2)CN1c1cccc(C(F)(F)F)n1` [Compound 101, 8-[1-(2,2-difluoroethyl)-1H-pyrazolo[3,4-b]pyrazin-6-yl]-2-[6-(trifluoromethyl)pyridin-2-yl]-2,8-diazaspiro[4.5]decan-3-one], the pEC50 [1] was 4.30 to 5.00.
`FC(F)Cn1ncc2ncc(N3CCCC4(C3)CN(c3cnccc3C(F)(F)F)C4)nc21` [Compound 17, 6-[1-(2,2-difluoroethyl)-1H-pyrazolo[3,4-b]pyrazin-6-yl]-2-[4-(trifluoromethyl)pyridin-3-yl]-2,6-diazaspiro[3.5]nonane] showed a pEC50 [1] of 4.30 to 5.00.
With `O=C(c1ccc(OC(F)(F)F)cc1)N1CC2(CCN(c3cnc4cnn(CC(F)F)c4n3)C2)C1` [Cmpd 370] the pEC50 [1] was 4.30 to 5.00.
Molecule `O=C(c1cnc(C(F)(F)F)nc1)N1CC2(CCN(c3cnc4cnn(CC(F)F)c4n3)C2)C1` [Cmpd 325] has a pEC50 [1] of 4.30 to 5.00.
For `O=S(=O)(c1cccc(C(F)(F)F)c1)N1CC2(CCN(c3cnc4cnn(CC(F)F)c4n3)C2)C1` [Cmpd 374], the pEC50 [1] was 4.30 to 5.00.
Molecule `FC(F)(F)Cn1ncc2ncc(N3CCC4(CN(c5cnc(C(F)(F)F)nc5)C4)C3)nc21` [Cmpd 426] has a pEC50 (EC50 given as range classes) of 4.30 to 5.00.
`Cc1nc(N2CC3(CCN(c4cnc5c(C)nn(C6COC6)c5n4)CC3)CC2=O)cc(C(F)(F)F)n1` [Cmpd 459] was tested, and the pEC50 [1] was 4.30 to 5.00.
`FC(F)Cn1ncc2ncc(N3CCC4(CN(c5ccc(C(F)(F)F)cn5)CCO4)C3)nc21` (centres unmarked) [Compound 175, 2-[1-(2,2-difluoroethyl)-1H-pyrazolo[3,4-b]pyrazin-6-yl]-9-[5-(trifluoromethyl)pyridin-2-yl]-6-oxa-2,9-diazaspiro[4.5]decane] showed a pEC50 [1] of 4.00 to 4.30.
With `O=C1CC2(CCN(c3cnc4cnn(CC(F)F)c4n3)CC2)CN1Cc1ccc(Cl)cc1F` [Cmpd 421] the pEC50 (EC50 given as range classes) was greater than 5.00.
For `COc1ncc(N2CC3(CCN(c4cnc5cnn(CC(F)F)c5n4)C3)C2)cn1` [Cmpd 410], the pEC50 (EC50 given as range classes) was 4.00 to 4.30.
Work on `Cc1nn(CC(F)F)c2nc(N3CC4(CCCN(c5ccc(C(F)(F)F)nc5)C4)C3)cnc12` [Compound 137, 2-[1-(2,2-difluoroethyl)-3-methyl-1H-pyrazolo[3,4-b]pyrazin-6-yl]-6-[6-(trifluoromethyl)pyridin-3-yl]-2,6-diazaspiro[3.5]nonane] yielded a pEC50 [1] of less than 4.00.
`CC(C)Cn1ncc2ncc(N3CCC4(CN(c5ccnc(C(F)(F)F)c5)C4)C3)nc21` [Cmpd 1126] showed a pEC50 [1] greater than 5.00.
`Cn1c(N2CC3(CC2=O)CN(c2ccnc(C(F)(F)F)c2)C3)nc2c(cnn2CC(F)F)c1=O` [Cmpd 998] gave a pEC50 (EC50 given as range classes) of 4.30 to 5.00.
`FC(F)Cn1ncc2ncc(N3CCC4(CN(c5ccnc(C(F)(F)F)c5)C4)C3)nc21` [Cmpd 223] gave a pEC50 (EC50 given as range classes) greater than 5.00.
With `O=C1CC2(CCN(c3cnc4cnn(C5COC5)c4n3)CC2)CN1c1ccnc(C(F)(F)F)c1` [Cmpd 769] the pEC50 [1] was 4.30 to 5.00.
`Cc1cccc(C(=O)N2CC3(CCN(c4cnc5cnn(CC(F)F)c5n4)C3)C2)c1` [Cmpd 381] gave a pEC50 (EC50 given as range classes) greater than 5.00.
In the case of `O=C1CC2(CCN(c3cnc4cnn(CC(F)F)c4n3)CC2)CN1c1cncc(C(F)(F)F)c1` [Cmpd 681], the pEC50 [1] was 4.30 to 5.00.
`FC(F)(F)c1ccc(N2CCC3(CCN(c4cncc(N5CCCCC5)n4)CC3)C2)cn1` [Cmpd 256] showed a pEC50 [1] greater than 5.00.
`Cn1c(N2CCC3(CC2)CC(=O)N(c2ccnc(C(F)(F)F)c2)C3)nc2c(cnn2CC(F)F)c1=O` [Cmpd 923] showed a pEC50 [1] greater than 5.00.
